Usually Ki stands for a measure of affinity in units of concentration, obtained from inhibition or displacement. A word on the pKi: it is the negative decadic logarithm of the Ki, by convention in mol/L. A word on the EC50: it is the midpoint of the concentration-response curve. In general, Emax refers to the maximal effect, on the per cent scale that the assay sets.

In series [1] the target is T1, human OPRM (Homo sapiens, UniProt P35372). Details: expressed in transfected cells; host or cells: CHO-K1 (cell line provided by Dr. Toll, Torrey Pines Institute); membranes prepared in house. To be noted: cited from earlier work.
The target of series [2] is T1, human OPRM. On the set-up: expressed in transfected cells; host or cells: CHO-K1 (cell line provided by Dr. Toll, Torrey Pines Institute); membranes prepared in house. The settings on record: cited from earlier work. This is another data set of the same source.
Series [3] has as its system human OPRK. The experiment in a line: biochemical. The format is binding.
Series [4] concerns the target T1, human OPRM. The series can be described thus: biochemical. To be noted: for Emax: read-out: Efficacy (Emax). Details: expressed in transfected cells; host or cells: CHO-K1 (cell line provided by Dr. Toll, Torrey Pines Institute); membranes prepared in house.
Series [5] has as its target T1, human OPRM. The series can be described thus: biochemical. To be noted: Ki. The format is binding. Details: expressed in transfected cells; host or cells: CHO-K1 (cell line provided by Dr. Toll, Torrey Pines Institute); membranes prepared in house.
Series [6] deals with calf OPRM (Bos taurus, UniProt P79350). The settings on record: cited from earlier work.
Series [7] has as its target T2, OPRK (Homo sapiens, UniProt P41145). The series can be described thus: biochemical. Details: expressed in transfected cells; host or cells: CHO-K1. The settings on record: for Emax: read-out: Efficacy (Emax).
Series [8] has as its target T2, OPRK. The experiment in a line: biochemical. The format is binding. Details: expressed in transfected cells; host or cells: CHO-K1. The settings on record: Ki.
Series [9] deals with calf OPRK (Bos taurus, UniProt Q2KIP6). To be noted: calf receptor; literature; cited from earlier work.
Series [10] deals with opioid receptor delta (OPRD) (Bos taurus, UniProt F1N083). To be noted: printed in the SEM column; literature; cited from earlier work.
In series [11] the target is T2, OPRK. The experiment in a line: cell-based. Details: host or cells: CHO-K1.
Series [12] in a line: Single ascending oral dose pharmacokinetics of noribogaine in healthy volunteers (plasma and urine, LCMSMS). To be noted: for AUC0-216 / AUC0-∞ / Cmax / Tmax / t1/2: mean (SD), n = 6.
The target in series [13] is T1, human OPRM. The format is cell-based. Details: host or cells: CHO-K1.
Setting [14] is: from literature (or literature/this work) values.
[15] abbreviates: 30 mg single oral noribogaine, plasma.
[16] abbreviates: 60 mg single oral noribogaine, plasma.

“And” between values parts separate entries of the source, which are not always exact repeats. Equal entries are not always repeated. Where two headings read alike, the source gives them in different places.

T1 sequence (P35372 whole entry): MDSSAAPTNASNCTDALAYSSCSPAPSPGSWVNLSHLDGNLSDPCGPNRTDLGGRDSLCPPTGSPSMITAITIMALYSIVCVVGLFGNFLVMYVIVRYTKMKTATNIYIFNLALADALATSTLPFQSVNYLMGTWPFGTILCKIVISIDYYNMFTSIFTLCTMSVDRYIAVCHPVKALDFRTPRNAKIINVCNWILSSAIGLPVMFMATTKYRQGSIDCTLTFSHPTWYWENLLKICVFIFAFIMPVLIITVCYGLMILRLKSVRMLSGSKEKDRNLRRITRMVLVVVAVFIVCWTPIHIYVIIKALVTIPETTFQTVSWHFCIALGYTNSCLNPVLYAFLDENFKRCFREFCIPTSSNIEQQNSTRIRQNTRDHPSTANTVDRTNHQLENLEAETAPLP
Chain of calf OPRM (P79350 whole entry): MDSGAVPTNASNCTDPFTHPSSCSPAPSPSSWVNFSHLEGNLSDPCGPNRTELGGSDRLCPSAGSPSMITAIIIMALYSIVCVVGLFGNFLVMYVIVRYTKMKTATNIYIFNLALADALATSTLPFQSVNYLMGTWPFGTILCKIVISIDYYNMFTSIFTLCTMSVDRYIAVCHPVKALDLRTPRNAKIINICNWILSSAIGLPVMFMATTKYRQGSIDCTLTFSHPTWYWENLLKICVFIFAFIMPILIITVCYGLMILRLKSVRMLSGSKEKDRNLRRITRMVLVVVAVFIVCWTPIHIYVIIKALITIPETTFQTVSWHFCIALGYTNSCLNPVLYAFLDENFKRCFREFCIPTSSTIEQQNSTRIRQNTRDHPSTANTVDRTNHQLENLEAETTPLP
T2 sequence (P41145 whole entry): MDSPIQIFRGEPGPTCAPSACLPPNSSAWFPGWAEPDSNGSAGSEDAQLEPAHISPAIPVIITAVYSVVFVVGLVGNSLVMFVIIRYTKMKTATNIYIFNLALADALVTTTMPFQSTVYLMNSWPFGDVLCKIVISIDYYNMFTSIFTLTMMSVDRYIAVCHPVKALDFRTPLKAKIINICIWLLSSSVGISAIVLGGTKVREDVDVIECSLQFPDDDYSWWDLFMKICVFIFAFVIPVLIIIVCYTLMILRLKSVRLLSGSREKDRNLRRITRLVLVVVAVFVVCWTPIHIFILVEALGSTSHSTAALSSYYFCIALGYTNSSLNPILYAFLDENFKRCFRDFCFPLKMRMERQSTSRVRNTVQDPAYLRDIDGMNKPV
Chain of calf OPRK (Q2KIP6 whole entry): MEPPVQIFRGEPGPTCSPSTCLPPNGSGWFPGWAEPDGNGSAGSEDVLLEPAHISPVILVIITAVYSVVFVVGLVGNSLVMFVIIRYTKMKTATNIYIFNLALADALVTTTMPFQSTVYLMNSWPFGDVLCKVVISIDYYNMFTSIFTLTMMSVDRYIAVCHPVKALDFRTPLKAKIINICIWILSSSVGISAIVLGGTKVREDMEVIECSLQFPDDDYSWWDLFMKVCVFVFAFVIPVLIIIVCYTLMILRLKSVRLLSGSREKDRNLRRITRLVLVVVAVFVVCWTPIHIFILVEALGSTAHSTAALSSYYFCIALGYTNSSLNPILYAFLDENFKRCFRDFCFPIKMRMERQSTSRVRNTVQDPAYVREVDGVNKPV
Chain of opioid receptor delta (OPRD) (F1N083 1-372): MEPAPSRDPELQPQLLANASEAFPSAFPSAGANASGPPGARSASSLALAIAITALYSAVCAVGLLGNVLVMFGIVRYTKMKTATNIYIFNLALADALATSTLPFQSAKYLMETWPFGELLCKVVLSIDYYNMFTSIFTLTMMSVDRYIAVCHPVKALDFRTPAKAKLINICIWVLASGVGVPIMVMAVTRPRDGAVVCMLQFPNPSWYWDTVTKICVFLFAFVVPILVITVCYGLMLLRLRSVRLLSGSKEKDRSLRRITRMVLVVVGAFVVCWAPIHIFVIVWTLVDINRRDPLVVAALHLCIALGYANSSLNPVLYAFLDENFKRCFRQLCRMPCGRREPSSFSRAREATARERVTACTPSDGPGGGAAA

Turning to `NC(N)=Nc1ccc2c3c([nH]c2c1)[C@@H]1Oc2c(O)ccc4c2[C@@]12CCN(CC1CC1)[C@H](C4)[C@]2(O)C3` [6′GNTI, 6′-guanidinonaltrindole], in [1], the inhibition constant (Ki) was 0.082 µM and the pKi is 7.1. Also, in [2] (activation, literature), the concentration for a half-maximal effect (EC50) was above 1 µM and the Efficacy is recorded as 0~ %. Further, the “ΔpKi = pKi(OPRK) − pKi(OPRM), OPRK Specificity” value (“ΔpKi = pKi(OPRK) − pKi(OPRM)” below) in series [3] (setting [14]) was 1.84.

On to `COCCC1CC2CN3CCc4c([nH]c5ccccc45)C(C(=O)OC)(C2)C13` (stereo not shown) [18-MC, 18-methoxycoronaridine, reference compound], for which, in [4], the “stimulation of the OPRM G-protein pathway” value is “failed to stimulate the OPRM G-protein pathway” and the Emax was below 5%. Further, the Ki in series [5] was 2.26 µM and 2.36 µM. Besides, the “reported selectivity at OPRM” value in series [6] (Glick, Maisonneuve et al. 2000) was 5 ×. The pKi in [6] (calf receptor, literature) is given as 6.0. Also, in series [7], the concentration giving a half-maximal response (EC50) was around 16 µM, the “Efficacy (inhibition)” value is given as −100%, the “e-coupling (pKi-pEC50)” value is 0.94~ and the “e-coupling (pKi-pKe)” value is recorded as 0.39. In [7], the “stimulation of [35S]GTPγS binding to OPRK” value was “failed to stimulate” and the Emax was below 5%. Moreover, in [7] (Ke), the Ki was 2.8 µM and 2.9 µM and 4.3 µM. Moreover, the Ki in series [8] (Table 9 summary column, value of this work) is 1.8 µM. The compound further returned an inhibition constant Ki in series [8] ([3H]-U69,593) of 1.84 ± 0.12 µM. Moreover, in series [9], the inhibition constant Ki is 5.1 µM and the negative-log Ki (pKi) was 5.3. In addition, the “ΔpKi = pKi(OPRK) − pKi(OPRM)” value in series [3] (setting [14]) is −0.7. Further, in [3] (from values of this work), the “ΔpKi = pKi(OPRK) − pKi(OPRM)” value amounted to 0.1. In [3] (in these assays), the “affinity at human OPRK versus OPRM” value was “equi-affine to both human OPRK and OPRM”.

As for `C[C@@H](NC(=O)[C@@H](N)Cc1ccc(O)cc1)C(=O)NCC(=O)N(C)[C@@H](Cc1ccccc1)C(=O)NCCO` [DAMGO, [D-Ala2, NMe-Phe4, Gly-ol5]-enkephalin], the “ΔpKi = pKi(OPRK) − pKi(OPRM)” value in [3] (setting [14]) is reported as below −3.

Take `CCC1CC2CC3c4[nH]c5ccc(OC)cc5c4CCN(C2)C13` (stereo not shown) [Ibogaine, ibogaine, reference compound]: in [4], the “stimulation of the OPRM G-protein pathway” value was “failed to stimulate the OPRM G-protein pathway” and the Emax was -2.9%. For the same compound, in series [5], the affinity corresponds to a Ki of 6.92 ± 0.83 µM. Also, in series [6] (calf receptor, literature), the Ki is 11 µM and the pKi was 5.0. In [10], the inhibition constant Ki at OPRD is reported as “(OPRD − N.Q.)”.

On to `C=C1CC[C@@]2(O)[C@H]3Cc4ccc(O)c5c4[C@@]2(CCN3CC2CC2)[C@H]1O5` [Nalmefene, nalmefene, reference compound], for which, in series [7], the “Efficacy (inhibition)” value is reported as −65%, the “e-coupling (pKi-pEC50)” value turned out to be 0.92, the “e-coupling (pKi-pKe)” value worked out at 0.23 and the “own reduced signal level to which rival agonist signal is leveled down” value was 30%. In addition, the Emax in series [7] is 35 ± 4.7%.

As for `Oc1ccc2c3c1O[C@H]1c4[nH]c5c(c4C[C@@]4(O)[C@@H](C2)N(CC2CC2)CC[C@]314)C[C@@]1(O)[C@H]2Cc3ccc(O)c4c3[C@@]1(CCN2CC1CC1)[C@H]5O4` [NorBNI, nor-binaltorphimine, reference compound], the “Efficacy (inhibition)” value in series [7] and in series [11] (inhibitory component against Dynorphin A) was −100% each time. The “e-coupling (pKi-pKe)” value is given as −0.1 in series [7] and 0.27 in series [11] (inhibitory component). Besides, in series [3] (setting [14]), the “ΔpKi = pKi(OPRK) − pKi(OPRM)” value amounted to 2.0.

For the compound `CC[C@H]1C[C@@H]2C[C@H]3c4[nH]c5ccc(OC6OC(C(=O)O)C(O)C(O)C6O)cc5c4CCN(C2)[C@@H]13` (stereo partly shown) [Noribogaine glucuronide, noribogaine glucuronide], the “proportion of noribogaine glucuronide Cmax and AUC relative to noribogaine” value in series [12] (30 mg and 60 mg dose groups) was 3-4%. Also, in series [12] (setting [15]), the AUC0-216 is on record as 25.7 (9.1) ng · hr/ml, the “AUC0-∞” value is 25.8 (9.3) ng · hr/ml, the Cmax is listed as 1.8 (0.6) ng/ml and the Tmax was 3.0 (0.6) hr. Also, in [12] (setting [15]), the t1/2 is 20.6 (4.9) hr. For the same compound, in series [12] (setting [16]), the AUC0-216 is 65.0 (21.5) ng · hr/ml, the “AUC0-∞” value is on record as 67.1 (21.9) ng · hr/ml, the Cmax is on record as 4.1 (1.2) ng/ml and the Tmax is given as 3.8 (1.2) hr. The t1/2 in [12] (setting [16]) was 23.1 (3.0) hr. Moreover, in series [12] (plasma, 30 mg and 60 mg noribogaine), the “time by which detected in all subjects” value is at most 0.75 h. Moreover, in series [12] (plasma, across dose groups), the Mean half-life was 21 to 23 h and the “time of peak concentrations after oral noribogaine dosing” value is 3 to 4 h.

Turning to [Met]-Enkephalin, the Efficacy in [2] is recorded as around 95%; in series [13], 100%. For the same compound, the “ΔpKi = pKi(OPRK) − pKi(OPRM)” value in series [3] is on record as below −3.

These data come from US10660900B2 (priority 2014, dated 2020).
